“And” between values parts separate entries of the source, which are not always exact repeats. Equal entries are not always repeated. Structures can show the parent of a compound that is named as a salt.
Tests used:
[1] = test system: Ent. cloacae N1; test: in-vitro MIC of amoxycillin alone and with Example 1; assay type: cell-based; conditions: alone; β-lactamase 1 (inducible expression)
[2] = test system: Ent. cloacae P99; test: as above; assay type: cell-based; conditions: alone; β-lactamase 1 (high constitutive expression)
[3] = test system: S. aureus Russell; test: as above; assay type: cell-based; conditions: alone; β-lactamase 2a
[4] = test system: E. coli JT39; test: as above; assay type: cell-based; conditions: alone; β-lactamase 2b (low expression)
[5] = test system: JT4; test: as above; assay type: cell-based, P. coli; conditions: alone; β-lactamase 2b (high expression)
[6] = test system: P. mirabilis C889; test: as above; assay type: cell-based; conditions: alone; β-lactamase 2c
[7] = test system: E. coli P91; test: as above; assay type: cell-based; conditions: alone; β-lactamase 2d
[8] = test system: P. vulgaris C; test: as above; assay type: cell-based; conditions: alone; β-lactamase 2e
[9] = test system: TEM-3 producing strain of K.pneumoniae; test: MIC of cefotaxime, titration with Example 1; assay type: cell-based; conditions: K.pneumoniae TEM-3
Protocol: (§1) The in-vitro synergistic activity of the compound of Example 1 above (i.e sodium (5R)-6-[(Z)-(2,3-dihydroimidazo[2,1-b]thiazol- 6-yl)methylene]penem-3-carboxylate) with cefotaxime was investigated.
The MIC (inimum inhibitory concentration) of cefotaxime against one TEM-3 producing strain of K.pneumoniae was measured.

[10] = test system: Enterobacter cloacae (4593) producing high levels of derepressed class (AmpC) β-lactamase; test: mouse intraperitoneal infection, cefotaxime CD50; assay type: in vivo, mice
Protocol: (§2) In these studies, mice were infected intraperitoneally with a lethal challenge inoculum of strains of either Klebsiella pneumoniae (520), producing extended-spectrum TEM type ββ-lactamase, (TEM-3) or Enterobacter cloacae (4593) producing high levels of derepressed class (AmpC) ββ-lactamase. Virulence of all strains was enhanced by suspending the bacteria in hog gastric mucin prior to infection.
(§3) Mice were dosed subcutaneously at 1 and 5 hours post-infection, with either cefotaxime alone or coadministered with the ββ-lactamase inhibitor at 1 mg/kg or 5 mg/kg.
(§4) 1 CD50 (dose protecting 50% of animals from lethal infection) calculated from groups of 5 animals per test, subjected to a range of 4 dose levels (4-fold serial dilutions)
(§5) Efficacy was assessed by the number of animal surviving at 4 days after infection, and the total dose that protected 50% of treated animals (CD50 value) was calculated.

[11] = test system: Klebsiella pneumoniae (520), producing TEM-3 β-lactamase; test: mouse intraperitoneal infection, cefotaxime CD50; assay type: in vivo, mice
Protocol: as §2, §3, §4, §5

[12] = test system: B. fragilis; test: in-vitro MIC of ceftazidime alone and with Example 1; assay type: cell-based
Description: (§6) The in-vitro synergistic activity of the compound of Example 1 above (i.e sodium (5R)-6-[(Z)-(2,3-dihydroimidazo[2,1-b]thiazol-6-yl) methylene]penem-3-carboxylate) with ceftazidime was investigated.

[13] = test system: strain of Enterobacter producing extended spectrum β-lactamase enzymes; test: as above; assay type: cell-based; conditions: Enterobacter ESBL strain
Description: as §6

[14] = test system: E. cloacae; test: in vitro selection of ceftazidime-resistant cells in a growing population; assay type: cell-based
[15] = test system: B. fragilis; test: in-vitro synergy with cefotaxime; assay type: cell-based; conditions: 1 μg/ml Example 1
Description: as §1

[16] = test system: strains of Enterobacteriaceae producing extended spectrum β-lactamases; test: in-vitro synergy with cefotaxime; assay type: cell-based; conditions: 1 μg/ml Example 1
Description: as §1

[17] = test system: strain of Ent.cloacae producing high levels of Class 1 β-lactamases constitutively; test: MIC of cefotaxime, titration with Example 1; assay type: cell-based; conditions: in presence of 1 μg/ml Example 1; Ent.cloacae high Class 1
[18] = test system: Escherichia coli (E96), producing TEM-1 β-lactamase; test: mouse intraperitoneal infection, amoxycillin CD50; assay type: in vivo, mice; conditions: coadministration with Example 1 versus amoxycillin alone
Protocol: In these studies, mice were infected intrapenitoneally with a lethal challenge inoculum of strains of Escherichia coli (E96), producing TEM-1 ββ-lactamase, for tests to protect amoxycillin. Virulence of all strains was enhanced by suspending the bacteria in hog gastric mucin prior to infection.
Mice were dosed subcutaneously at 1 and 5 hours post-infection, with either amoxycillin alone or coadministered with the ββ-lactamase inhibitor at 2 mg/kg.
as §5

[19] = serum half life; conditions: in vivo
[20] = in presence of 1 μg/ml Example 1

CC1(C)S[C@@H]2[C@H](NC(=O)[C@H](N)c3ccc(O)cc3)C(=O)N2[C@H]1C(=O)O [Amoxycillin, 6-[D(−)-α-amino-p-hydroxypheny-acetamido]penicillanic acid]
Amoxycillin MIC [1]: > 256 µg/mL
Amoxycillin MIC [2]: > 256 µg/mL
Amoxycillin MIC [3]: 128 µg/mL
Amoxycillin MIC [4]: > 256 µg/mL
Amoxycillin MIC [5]: > 256 µg/mL
Amoxycillin MIC [6]: > 256 µg/mL
Amoxycillin MIC [7]: > 256 µg/mL
Amoxycillin MIC [8]: 32 µg/mL

CO/N=C(\C(=O)N[C@@H]1C(=O)N2C(C(=O)O)=C(COC(C)=O)CS[C@H]12)c1csc(N)n1 [Cefotaxime]
MIC ([9]; Klebsiella pneumoniae, in the absence of Example 1): 64 µg/mL
Cefotaxime CD50 ([10]; cefotaxime alone, s.c. at 1 and 5 h post-infection, E. cloacae 4593): 240 mg/kg and 400 mg/kg
Cefotaxime CD50 ([11]; cefotaxime alone, s.c. at 1 and 5 h post-infection, K. pneumoniae): 54 mg/kg and 42 mg/kg

O=C([O-])C1=CS[C@@H]2/C(=C\c3cn4c(n3)SCC4)C(=O)N12.[Na+] [Example 1, Sodium (5R)-6-[(Z)-(2,3-Dihydroimidazo[2,1-b]thiazol-6-yl) Methylene]-penem-3-carboxylate]
MIC of ceftazidime [12, 20]: around 4 μg/ml
MIC of ceftazidime [13, 20]: around 2 μg/ml
rate of emergence of resistant isolates ([14]; ceftazidime at 0.5 MIC plus Example 1): reduced the rate of emergence of resistant isolates dramatically
final level of resistance ([14]; combination of ceftazidime and Example 1 versus ceftazidime alone): much lower than that observed with ceftazidime alone
synergy with cefotaxime [15]: Effective synergy
synergy with cefotaxime [16]: Effective synergy
MIC of cefotaxime ([9]; Example 1 at concentrations as low as 0.25 μg/ml): below 1 μg/ml
cefotaxime MIC [17]: below 1 μg/ml
protection of infected animals ([10]; cefotaxime plus Example 1 compared with cefotaxime alone, E. cloacae (4593)): consistent protection
protection of infected animals ([11]; cefotaxime plus Example 1 compared with cefotaxime alone, K.pneumoniae (520)): consistent protection
effectiveness of amoxycillin in protecting animals [18]: markedly more effective
serum half life [19]: advantageously long

CC(C)(O/N=C(\C(=O)N[C@@H]1C(=O)N2C(C(=O)[O-])=C(C[n+]3ccccc3)CS[C@H]12)c1csc(N)n1)C(=O)O [ceftazidime, [6R -[6α,7β(Z)]]-1-[[7-[[(2-amino-4-thiazolyl)[(1-carboxy-1-methylethoxy)imino]acetyl]amino]-2-carboxy-8-oxo-5-thia-1-azabicyclo[4.2.0]oct-2-en-3-yl]methyl]pyridinium hydroxide inner salt]
MIC ([12]; Bacteroides fragilis, ceftazidime alone): ~7 µg/mL
MIC ([13]; ceftazidime alone): ~7 µg/mL
selection of cells showing high-level resistance to ceftazidime ([14]; ceftazidime alone at 0.5 MIC): rapidly selected

Source: patent US6472383B1, “Pharmaceutical formulations” (priority 1994, dated 2002)
